Data: patent US10202369B2, “1,3-thiazol-2-yl substituted benzamides” (BAYER AKTIENGESELLSCHAFT, priority 2014, dated 2019)

Experiments:
[1] = In vitro metabolic stability in liver microsomes (calculated Fmax); type: in vitro ADME, human; details: 1 μM, calculated maximal oral bioavailability
Experimental: In Vitro Metabolic Stability Assays Determination of in vitro Metabolic Stability in Microsomes (Including Calculation of Hepatic in vivo Blood Clearance (CL) and of Maximal Oral Bioavailability (Fmax))
The metabolic assay was started shortly afterwards by adding the test compound to the incubation at a final volume of 1 mL. Organic solvent in the incubations was limited to ≤0.01% dimethylsulfoxide (DMSO) and ≤1% acetonitrile. […] Samples were frozen at −20° C. overnight, subsequently centrifuged for 15 minutes at 3000 rpm and the supernatant was analyzed with an Agilent 1200 HPLC-system with LCMS/MS detection.
The half-life of a test compound was determined from the concentration-time plot. From the half-life (kel: slope of concentration-time plot; half-life=In2/kel) the intrinsic clearances were calculated. Together with the additional parameters liver blood flow, specific liver weight and microsomal protein content the hepatic in vivo blood clearance (CL) and the maximal oral bioavailability (Fmax) were calculated for the different species.
(§1) Metabolic instability is often the main clearance mechanism of xenobiotica leading to a high CL and low bioavailability which may eventually result in a short half-life and a low exposure after oral administration. Thus, reducing the susceptibility of metabolic degradation usually leads to a more favourable pharmacokinetic profile. When using liver microsomes as incubation matrix main phase I metabolic reactions, typically oxidoreductive reactions by cytochrome P450 enzymes and flavin mono-oxygenases (FMO) and hydrolytic reactions by esterases/amidases/epoxidhydrolases, are described. When the incubation of the test compound is performed in a hepatocyte matrix all potential hepatic metabolic processes (phase I and phase II) are covered.

rat hepatocytes = assay: In vitro metabolic stability in rat hepatocytes (calculated Fmax); type: in vitro ADME, Han Wistar rats; details: 1 μM, calculated maximal oral bioavailability
Experimental: Determination of in Vitro Metabolic Stability in Rat Hepatocytes (Including Calculation of Hepatic in Vivo Blood Clearance (CL))
Hepatocytes from Han Wistar rats were isolated via a 2-step perfusion method. After perfusion, the liver was carefully removed from the rat: the liver capsule was opened and the hepatocytes were gently shaken out into a Petri dish with ice-cold Williams' medium E (WME). The resulting cell suspension was filtered through sterile gaze in 50 mL falcon tubes and centrifuged at 50×g for 3 min at room temperature. The cell pellet was resuspended in 30 mL WME and centrifuged through a Percoll® gradient for 2 times at 100×g. The hepatocytes were washed again with WME and resuspended in medium containing 5% FCS. Cell viability was determined by trypan blue exclusion. […] The test compound was added to a final concentration of 1 μM. […] Samples were frozen at −20° C. overnight, subsequently centrifuged for 15 minutes at 3000 rpm and the supernatant was analyzed with an Agilent 1200 HPLC-system with LCMS/MS detection.
The half-life of a test compound was determined from the concentration-time plot. From the half-life (kel: slope of concentration-time plot; half-life=In2/kel) the intrinsic clearances were calculated. Together with the additional parameters liver blood flow, amount of liver cells in vivo and in vitro.
as §1

[2] = clinical PhII trials; attributed to blockade of P2X2/3 channels; cited from earlier work
vaginal hyperalgesia = assay: Rat dyspareunia model (visceromotor response to vaginal distension); type: in vivo, Sprague Dawley rats; details: 15 mg/kg oral b.i.d. during 2 weeks
Source text: The visceromotor response (VMR) to vaginal distension was used in conscious animals as an objective measure of vaginal sensitivity. Briefly, animals in estrus phase were surgically implanted with biopsies of left uterine horn (3×3 mm) around alternate cascade mesenteric arteries that supply the small intestine (4 pieces) and on the wall of the distal colon (2 pieces). To measure VMR response, 2 Teflon-coated wire electrodes were sutured in the external oblique abdominal muscle, and tunneled subcutaneously to be exteriorized at the base of the neck for future access. On the day of VMR assessment, a lubricated small balloon (1 cm length) was inserted into the mid-vaginal canal. […] The electrodes were connected to an amplifier (Animal Bio Amp, ADlnstruments), and the abdominal electromyographic signal was recorded using a data acquisition system (PowerLab, ADlnstruments) for off-line analysis using LabChart version 7. The number of abdominal muscle contractions was counted manually for each 0.1 ml distension step, as an index of vaginal pain. […] All data were expressed as mean±standard deviation (s.d.), for the number (n) of measured rats per group. […] Planned comparison of means (matched-volume versus vehicle) was performed using a Bonferroni post hoc test, provided that a main effect was detected. […]

human P2X3 receptor = human P2X3 receptor (Homo sapiens (Human), UniProt P56373); assay: Intracellular calcium measurement (FLIPR, Fluo-4) of antagonist activity at human P2X3 receptor; type: cell-based; details: human P2X3, FLIPR Fluo-4 calcium, agonist α,β-Me-ATP at EC80; read-out: hP2X3 IC50
human P2X3 receptor, sequence (P56373 whole entry): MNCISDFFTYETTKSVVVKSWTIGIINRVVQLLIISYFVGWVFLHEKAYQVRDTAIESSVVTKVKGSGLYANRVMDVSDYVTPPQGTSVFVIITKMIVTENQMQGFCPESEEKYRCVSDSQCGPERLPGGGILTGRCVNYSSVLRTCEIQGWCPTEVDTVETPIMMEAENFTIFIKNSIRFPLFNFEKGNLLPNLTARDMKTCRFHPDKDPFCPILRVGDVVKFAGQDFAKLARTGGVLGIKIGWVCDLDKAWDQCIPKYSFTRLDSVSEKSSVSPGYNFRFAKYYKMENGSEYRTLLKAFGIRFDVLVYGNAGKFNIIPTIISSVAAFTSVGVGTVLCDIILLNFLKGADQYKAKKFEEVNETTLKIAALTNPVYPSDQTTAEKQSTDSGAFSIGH
Experimental: (§2) Intracellular Calcium Measurement to Assess Antagonist Activity at Human P2X3 and Human P2X2/3 Receptors
(§3) A fluorescent imaging plate reader (FLEX/FLIPR station; Molecular Devices) was used to monitor intracellular calcium levels using the calcium-chelating dye Fluo-4 (Molecular Probes). […] Cells expressing purinergic receptors P2X3 (human) or P2X2/3 (human) were plated at a density of 15,000 cells/well in collagen-coated 384-well plates approximately 20 hours before beginning the assay. […] The test compound was added in a volume of 5 μl and allowed to incubate for 30 min at 37° C. The final assay DMSO concentration is 1%.
(§4) The agonist, α,β-Me-ATP, was added in a volume of 20 μl at a concentration representing the EC80 value. The fluorescence was measured for an interval of 90 sec at 2 sec intervals and analyzed based on the increase in peak relative fluorescence units (RFU) compared to the basal fluorescence. Peak fluorescence was used to determine the response to agonist obtained at each concentration of test compound by the following equation: % Response=100*(RFU(test compound)−RFU(control))/(RFU(DMSO)−RFU(control))
(§5) The Examples were tested in triplicates per plate and mean values were plotted in Excel XLFit to determine IC5o values at the human P2X3 and human P2X2/3 receptors, percentage of maximal inhibition and the Hill coefficients.

human P2X2/3 receptor = human P2X2/3 receptor (Homo sapiens (Human), UniProt P56373+Q9UBL9); assay: Intracellular calcium measurement (FLIPR, Fluo-4) of antagonist activity at human P2X2/3 receptor; type: cell-based; details: human P2X2/3, FLIPR Fluo-4 calcium, agonist α,β-Me-ATP at EC80; read-out: hP2X2/3 IC50
human P2X2/3 receptor, sequence (P56373 whole entry): as above
human P2X2/3 receptor, sequence (Q9UBL9 whole entry): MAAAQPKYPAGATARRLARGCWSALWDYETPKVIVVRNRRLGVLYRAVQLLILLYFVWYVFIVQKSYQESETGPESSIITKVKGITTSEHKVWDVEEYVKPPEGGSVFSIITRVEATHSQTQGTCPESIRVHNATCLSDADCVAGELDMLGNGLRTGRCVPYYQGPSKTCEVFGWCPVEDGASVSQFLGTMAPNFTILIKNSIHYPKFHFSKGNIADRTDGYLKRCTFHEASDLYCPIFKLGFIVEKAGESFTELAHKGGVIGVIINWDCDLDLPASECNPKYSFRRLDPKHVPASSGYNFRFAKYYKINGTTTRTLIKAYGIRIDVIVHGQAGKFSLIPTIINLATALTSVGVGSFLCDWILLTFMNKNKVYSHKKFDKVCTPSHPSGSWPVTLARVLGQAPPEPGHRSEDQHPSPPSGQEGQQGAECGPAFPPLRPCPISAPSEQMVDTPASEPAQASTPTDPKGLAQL
Experimental: as §2, §3, §4, §5

Row | SMILES | Human liver microsome Fmax [1] [%] | Rat hepatocyte Fmax (rat hepatocytes) [%] | also measured
1 | Cc1cnc(-c2cc(OC(C)C(C)O)cc(C(=O)N[C@H](C)c3cnc(C(F)(F)F)nc3)c2)s1 (single isomer, unassigned) [Example 163] | 100 | 53 | –
2 | Cc1cnc(-c2cc(OC(C)C(C)O)cc(C(=O)N[C@H](C)c3ccc(C(F)(F)F)nn3)c2)s1 (single isomer, unassigned) [Example 183] | 74 | 43 | –
3 | COc1cc(C(C)C)c(Oc2cnc(N)nc2N)cc1S(N)(=O)=O [AF-219] | – | – | taste disturbances in treated subjects [2]: taste disturbances
4 | Cc1cnc(-c2cc(O[C@@H]3CCOC3)cc(C(=O)N[C@H](C)c3cnc(C(F)(F)F)nc3)c2)s1 [Example 11, 3-(5-Methyl-1,3-thiazol-2-yl)-5-[(3R)-tetrahydrofuran-3-yloxy]-N-{(1R)-1-[2-(trifluoromethyl)pyrimidin-5-yl]ethyl}benzamide] | 57 | 52 | Vaginal hyperalgesia compared to vehicle-treated animals (vaginal hyperalgesia): decreased vaginal hyperalgesia
5 | Cc1cnc(-c2cc(O[C@H]3CCOC3)cc(C(=O)N[C@H](C)c3cnc(C(F)(F)F)nc3)c2)s1 [Example 26, 3-(5-methyl-1,3-thiazol-2-yl)-5-[(3S)-tetrahydrofuran-3-yloxy]-N-{(1R)-1-[2-(trifluoromethyl)pyrimidin-5-yl]ethyl}benzamide] | 67 | 56 | –
6 | CCc1cnc(-c2cc(OC[C@H]3CCCO3)cc(C(=O)N[C@H](C)c3cnc(C)cn3)c2)s1 [Example 277, 3-(5-ethyl-1,3-thiazol-2-yl)-N-[(1R)-1-(5-methypyrazin-2-yl)ethyl]-5-[(3S)-tetrahydrofuran-3-ylmethoxy]benzamide] | – | – | IC50 (human P2X3 receptor): 6 nM; IC50 (human P2X2/3 receptor): 96 nM

The next lines start with results.

Row | Human liver microsome Fmax [1] [%] | Rat hepatocyte Fmax (rat hepatocytes) [%] | SMILES | also measured
7 | 94 | 52 | Cc1cnc(-c2cc(OC(C)C(C)O)cc(C(=O)N[C@H](C)c3cnc(C(F)(F)F)nc3)c2)s1 (single isomer, unassigned) [Example 339] | –
8 | 90 | 64 | Cc1cnc(-c2cc(OC(C)C(C)O)cc(C(=O)N[C@H](C)c3cnc(C(F)(F)F)nc3)c2)s1 (single isomer, unassigned) [Example 340] | –
9 | 74 | 51 | CCc1cnc(-c2cc(OC[C@H]3CN(C)CCO3)cc(C(=O)N[C@H](C)c3ccc(C(F)(F)F)nn3)c2)s1 [Example 419, 3-(5-ethyl-1,3-thiazol-2-yl)-5-{[(2R)-4-methyl-morpholin-2-yl]methoxy}-N-{(1R)-1-[6-(trifluoromethyl)pyridazin-3-yl]ethyl} benzamide] | –
